Laboratory results reported in article PMC9532951, “Identification and characterization of a novel SNAT2 (SLC38A2) inhibitor reveals synergy with glucose transport inhibition in cancer cells” (Frontiers in Pharmacology, 2022).
“And” between values parts separate entries of the source, which are not always exact repeats. Identical values can stand only once.

Each molecule was assayed on SNAT1 and SNAT2 (assay: FMP assay: inhibition of glutamine-induced membrane depolarisation in amino acid depleted HCC1806 cells). Conditions: FMP assay, top hit compounds from the HTS, 9-point dose-response, n = 6.
Assay type: cell-based, human
Method: (§1) The FLIPR Membrane Potential Blue Explorer Kit (Molecular Devices) was used to characterise inhibitors and to optimise a high-throughput compound screen. Cells were seeded at approximately 60,000 cells/well on a 96-well plate and allowed to attach and grow overnight in a cell incubator. […] Cells were then washed once with mHBSS and incubated with 50 µl of the mHBSS-resuspended FMP assay dye and 50 µl of mHBSS (with or without inhibitors) and incubated at room temperature for 30 min. The plate was then placed in an EnSpire Multimode plate reader (PerkinElmer) and four sequential measurements of fluorescence were recorded as a baseline reference. Immediately after the baseline measurements were taken, 25 µl of 5 mM glutamine dissolved in mHBSS was injected into each well and the plate was shaken orbitally for 5 s before a series of consecutive fluorescence measurements were taken. The excitation wavelength was set to 530 nm and the emission was detected at 565 nm. The Δ fluorescent signal reported in the figures was taken 30 s after substrate addition. After the assay was complete, the liquid content of the plate was carefully removed, and the cell monolayer inspected to ensure it remained intact throughout the course of the assay.
IC50 were calculated using equation y=ymax(1−x/x+IC50)
Molecule `Cc1sc2nc(CN3CCC(C)CC3)nc(N3CCC(C)CC3)c2c1C` [Compound 56_C] has an IC50 of 18.4 µM. Molecule `COC(=O)c1ccc(C(=O)N2CCc3sccc3C2c2ccccc2)s1` (stereo not drawn) [Compound 57_C] has an IC50 of 114 µM. `C#Cc1cccc(NC(=O)N2CC(S(=O)(=O)N3CCN(C(=O)OC(C)(C)C)CC3)C2)c1` [Compound 55_G] gave an IC50 of 83.5 µM. With `CCN1CCN(Cc2nn(-c3ccc(C)c(Cl)c3)c(N)c2-c2ccccc2)CC1` [Compound 55_A] the IC50 was 3.84 µM.

The molecules below were run on SNAT1/2 (assay: FMP assay: depolarisation by amino acid substrates in amino acid depleted HCC1806 cells). Conditions: 1 mM.
Assay type: cell-based, human
Method: as §1, with “The Δ fluorescent signal reported in the figures was taken 30 s after substrate addition.” left out
For `O=C(O)[C@@H]1CCCN1` [Proline], the “FMP response as substrate” value was “strongest response”. `N[C@@H](Cc1ccccc1)C(=O)O` [Phenylalanine] was tested, and the “FMP response as substrate” value was “weak signal”.

Same assay, conditions: amino acid 1 mM final; t=0 s
`O=C(O)[C@@H]1CCCN1` [Proline] was tested, and the FMP fluorescence reading was 59025 and 53021 and 43095. In the case of `N[C@@H](Cc1ccccc1)C(=O)O` [Phenylalanine], the FMP fluorescence reading is reported as 56591 and 55422 and 43224.

Same assay, conditions: amino acid 1 mM final; t=15 s
In the case of `O=C(O)[C@@H]1CCCN1` [Proline], the FMP fluorescence reading is reported as 104996 and 86952 and 88962. For `N[C@@H](Cc1ccccc1)C(=O)O` [Phenylalanine], the FMP fluorescence reading was 73580 and 72052 and 58378.

Same assay, conditions: amino acid 1 mM final; t=30 s
In the case of `O=C(O)[C@@H]1CCCN1` [Proline], the FMP fluorescence reading is reported as 110697 and 98531 and 91551. With `N[C@@H](Cc1ccccc1)C(=O)O` [Phenylalanine] the FMP fluorescence reading was 74725 and 73471 and 59296.

Same assay, conditions: amino acid 1 mM final; t=45 s
In the case of `O=C(O)[C@@H]1CCCN1` [Proline], the FMP fluorescence reading is reported as 113693 and 105110 and 94295. For `N[C@@H](Cc1ccccc1)C(=O)O` [Phenylalanine], the FMP fluorescence reading was 75492 and 73818 and 59645.

Same assay, conditions: amino acid 1 mM final; t=60 s
`O=C(O)[C@@H]1CCCN1` [Proline] was tested, and the FMP fluorescence reading was 116376 and 109453 and 95282. With `N[C@@H](Cc1ccccc1)C(=O)O` [Phenylalanine] the FMP fluorescence reading was 76233 and 74445 and 59921.

Same assay, conditions: amino acid 1 mM final; t=75 s
`O=C(O)[C@@H]1CCCN1` [Proline] was tested, and the FMP fluorescence reading was 118353 and 112938 and 95197. For `N[C@@H](Cc1ccccc1)C(=O)O` [Phenylalanine], the FMP fluorescence reading was 76773 and 74969 and 60608.

Same assay, conditions: amino acid 1 mM final; t=90 s
For `O=C(O)[C@@H]1CCCN1` [Proline], the FMP fluorescence reading was 118882 and 114320 and 95021. With `N[C@@H](Cc1ccccc1)C(=O)O` [Phenylalanine] the FMP fluorescence reading was 77388 and 75496 and 60901.

Same assay, conditions: amino acid 1 mM final; t=105 s
In the case of `O=C(O)[C@@H]1CCCN1` [Proline], the FMP fluorescence reading is reported as 119266 and 115087 and 95127. In the case of `N[C@@H](Cc1ccccc1)C(=O)O` [Phenylalanine], the FMP fluorescence reading is reported as 77493 and 75802 and 61169.

Same assay, conditions: amino acid 1 mM final; t=120 s
In the case of `O=C(O)[C@@H]1CCCN1` [Proline], the FMP fluorescence reading is reported as 119471 and 115780 and 93913. With `N[C@@H](Cc1ccccc1)C(=O)O` [Phenylalanine] the FMP fluorescence reading was 77831 and 75902 and 61002.

Same assay, conditions: amino acid 1 mM final; t=135 s
With `O=C(O)[C@@H]1CCCN1` [Proline] the FMP fluorescence reading was 119506 and 115226 and 93809. With `N[C@@H](Cc1ccccc1)C(=O)O` [Phenylalanine] the FMP fluorescence reading was 78078 and 75738 and 60891.

Same assay, conditions: amino acid 1 mM final; t=-15 s
`O=C(O)[C@@H]1CCCN1` [Proline] was tested, and the FMP fluorescence reading was 58886 and 52711 and 43194. With `N[C@@H](Cc1ccccc1)C(=O)O` [Phenylalanine] the FMP fluorescence reading was 56780 and 55712 and 43156.

Same assay, conditions: amino acid 1 mM final; t=-30 s; replicates 1-3
With `O=C(O)[C@@H]1CCCN1` [Proline] the FMP fluorescence reading was 59126 and 52759 and 43032. In the case of `N[C@@H](Cc1ccccc1)C(=O)O` [Phenylalanine], the FMP fluorescence reading is reported as 56746 and 55392 and 43055.
